Results published in the supplement of paper PMC10307832.

Assays:
Test in all cases: relative viability (nuclei count vs DMSO), 5 days (fraction); higher = more cells survive
Shikonin + Palbociclib = compound: CC(C)=CC[C@@H](O)C1=CC(=O)c2c(O)ccc(O)c2C1=O [Shikonin] + CC(=O)c1c(C)c2cnc(Nc3ccc(N4CCNCC4)cn3)nc2n(C2CCCC2)c1=O [Palbociclib] (partner 0.5 µM)
Outline: (§1)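 Relative viability equals treated-well nuclei counts divided by vehicle-well nuclei counts. Counts came from 4× images of lung cancer cell lines grown in 1536-well plates for 5 days after pin-tool dosing on the day after seeding. Dosing used one drug alone or a fixed anchor-drug dose plus five library-drug doses (not always all listed) in √10 steps, and values are medians of duplicate plates.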

Shikonin + Dasatinib = compound: CC(C)=CC[C@@H](O)C1=CC(=O)c2c(O)ccc(O)c2C1=O [Shikonin] + Cc1nc(Nc2ncc(C(=O)Nc3c(C)cccc3Cl)s2)cc(N2CCN(CCO)CC2)n1 [Dasatinib] (partner 0.075 µM)
Outline: as §1

Shikonin + Navitoclax = compound: CC(C)=CC[C@@H](O)C1=CC(=O)c2c(O)ccc(O)c2C1=O [Shikonin] + CC1(C)CCC(c2ccc(Cl)cc2)=C(CN2CCN(c3ccc(C(=O)NS(=O)(=O)c4ccc(N[C@H](CCN5CCOCC5)CSc5ccccc5)c(S(=O)(=O)C(F)(F)F)c4)cc3)CC2)C1 [Navitoclax] (partner 0.5 µM)
Outline: as §1

Shikonin + Linsitinib = compound: CC(C)=CC[C@@H](O)C1=CC(=O)c2c(O)ccc(O)c2C1=O [Shikonin] + C[C@]1(O)C[C@@H](c2nc(-c3ccc4ccc(-c5ccccc5)nc4c3)c3c(N)nccn32)C1 [Linsitinib] (partner 1 µM)
Outline: as §1

Shikonin + Trametinib = compound: CC(C)=CC[C@@H](O)C1=CC(=O)c2c(O)ccc(O)c2C1=O [Shikonin] + CC(=O)Nc1cccc(-n2c(=O)n(C3CC3)c(=O)c3c(Nc4ccc(I)cc4F)n(C)c(=O)c(C)c32)c1 [Trametinib] (partner 0.02 µM)
Outline: as §1

Cell Line	relative viability (Shikonin + Palbociclib; first compound 0.01 µM)	relative viability (Shikonin + Palbociclib; first compound 0.1 µM)	relative viability (Shikonin + Palbociclib; first compound 0.3162 µM)	relative viability (Shikonin + Palbociclib; first compound 1 µM)	relative viability (Shikonin + Dasatinib; first compound 0.01 µM)	relative viability (Shikonin + Dasatinib; first compound 0.1 µM)	relative viability (Shikonin + Dasatinib; first compound 0.3162 µM)	relative viability (Shikonin + Dasatinib; first compound 1 µM)	relative viability (Shikonin + Navitoclax; first compound 0.01 µM)	relative viability (Shikonin + Navitoclax; first compound 0.1 µM)	relative viability (Shikonin + Navitoclax; first compound 0.3162 µM)	relative viability (Shikonin + Navitoclax; first compound 1 µM)	relative viability (Shikonin + Linsitinib; first compound 0.01 µM)	relative viability (Shikonin + Linsitinib; first compound 0.1 µM)	relative viability (Shikonin + Linsitinib; first compound 0.3162 µM)	relative viability (Shikonin + Linsitinib; first compound 1 µM)	relative viability (Shikonin + Trametinib; first compound 0.01 µM)	relative viability (Shikonin + Trametinib; first compound 0.1 µM)	relative viability (Shikonin + Trametinib; first compound 0.3162 µM)	relative viability (Shikonin + Trametinib; first compound 1 µM)
LK-2	0.772	0.869	0.773	0.664	0.273	0.258	0.228	0.267	0.913	0.866	1.03	0.852	0.589	0.539	0.527	0.473	0.884	0.935	0.799	0.732
LOU-NH91	0.546	0.526	0.549	0.5	0.551	0.551	0.639	0.584	0.662	0.646	0.736	0.664	0.904	0.999	1.06	0.974	0.815	0.839	0.838	0.791
LU99A	0.457	0.486	0.348	0.38	0.52	0.756	0.594	0.663	0.924	0.88	0.833	0.766	0.573	0.522	0.525	0.536	0.537	0.563	0.567	0.478
LXF-289	0.594	0.707	0.618	0.622	0.213	0.214	0.231	0.229	1.01	0.873	0.96	0.967	1.07	0.911	1	0.996	0.668	0.756	0.712	0.701
NCI-H23	0.597	0.543	0.623	0.573	0.643	0.883	0.78	0.944	0.821	0.748	0.935	0.781	0.592	0.489	0.696	0.533	0.356	0.395	0.472	0.42
NCI-H322M	0.479	0.446	0.477	0.489	0.237	0.271	0.261	0.27	1.23	1.21	1.32	1.27	0.919	0.837	0.993	1.13	0.498	0.459	0.513	0.564
NCI-H441	0.225	0.219	0.225	0.231	0.632	0.466	0.631	0.675	0.615	0.76	0.742	0.396	0.618	0.573	0.578	0.516	0.468	0.487	0.528	0.451
NCI-H460	0.166	0.227	0.2	0.222	0.509	0.762	0.556	0.605	1.16	1.49	1.25	1.19	0.914	0.819	0.992	0.904	0.159	0.164	0.131	0.135
NCI-H520	0.191	0.206	0.229	0.208	0.294	0.218	0.2	0.189	–	1.1	1.19	1	–	1.11	1.07	1.07	0.685	0.631	0.677	0.679
NCI-H647	0.487	0.325	0.38	0.361	0.159	0.156	0.145	0.171	0.991	0.886	1.25	1.02	1.01	1.37	1.51	1.32	0.414	0.356	0.443	0.451
NCI-H727	0.713	0.603	0.678	0.67	0.391	0.397	0.344	0.241	0.405	0.502	0.366	0.295	0.165	0.252	0.319	0.314	0.351	0.375	0.389	0.409
NCI-H838	0.231	0.246	0.197	0.243	0.314	0.284	0.262	0.333	1.12	1.25	1.28	1.2	1.05	1.08	1.07	1.03	0.619	0.505	0.551	0.564
NCI-H1355	0.421	0.419	0.383	0.398	0.6	0.676	0.721	0.787	0.81	0.939	0.995	0.983	0.764	0.943	0.887	0.855	0.405	0.42	0.424	0.395
NCI-H1395	0.524	0.664	0.596	0.628	0.376	0.403	0.45	0.449	1.18	1.16	1.14	1.09	1.08	1.4	0.878	1.05	0.994	1.18	1.09	0.923
NCI-H1437	0.328	0.309	0.268	0.303	0.377	0.385	0.367	0.531	1.14	1.09	1.14	1.12	1.28	1.05	1.23	1.11	0.539	0.433	0.458	0.504
